Experimental data reported in US8273340B2, “Methods and compositions for attracting or repelling cockroaches” (The United States of America, as represented by the …, priority 2008, dated 2012).

Tests used:
[1] = test system: German roaches (B. germanica); experiment: Two-harborage arena bioassay of sustained release polymer formulations; format: in vivo; details: counted after 24 hours
Text: Evaluation of sustained release formulations: Three cockroach attractants (methyl tiglate, butyl heptanoate, and propyl proprionate) were formulated in one or more polymer formulations (Urethane, Pellethane, Santoprene, and/or Polyethylene) as indicated in Table 4.A sweater box (1.5×2.0×0.5 ft) provided the test arena. The sides of the arena were coated with a blend of mineral oil and Vaseline petroleum jelly. The tops of two 8 oz paper ice cream cups were tapped to the arena floor with masking tape and, prior to the addition of the test cockroaches, inverted cups without holes were fixed to the tapped lids. Twenty-five laboratory reared late stage nymphs or adult male German roaches (B. germanica), starved for 72 hrs, were added to the arena and allowed to calm down (ca. 1 hour). The starting inverted ice cream cups were carefully removed and each ice cream cup top was then supplied with a water tube (1.5 ml scintillation vial with water and stoppered with cotton), one lab chew food pellet, and either a test attractant polymer formulation or the corresponding polymer blank control. […] The cups were oriented so that the holes were facing each other. The number of roaches that sought harborage in the cups was counted after 24 hours by plugging the entrance holes with cotton, the roaches inside euthanized, and the numbers in each cup counted.

[2] = Release rate of attractants from sustained release delivery systems; format: physicochemical
Text: Several secondary release rate control systems were developed. The first was a sachet that can contain the above polymer releasing system. This sachet can be either polyvinylidine chloride (PvdC) barrier film (e.g., Saranex™) enclosed in a thermally sealed metalized polyethylene container to eliminate release of active compounds, or a metalized polyethylene sachet with a removable seal that covers a vapor diffusion controlling orifice which when removed begins the release process from the internal polymer/carrier, or metalized polyethylene sachet which contains a small vial with a vapor controlling orifice. In the case of the Saranex™ sachet, the actual porosity of the Saranex™ control release is based on type of PVdC and thickness of the film. In the case of the metalized polyethylene sachet and internal polymer/carrier, a specific orifice size controlled the rate of diffusion of the active from the device, as shown in FIG. 4. An additional means of containing and reducing the release of the liquid active compounds and providing a solid support for use in the above delivery system involved sorbing the active compounds into an inert absorbent such as Membrana GmbH's expanded microporous polyolefin Accurel® MP100 which are granular or pelletized polyethylenes that have 10-50 μm air pockets throughout and can contain up to 90% of their volume in active compounds . MP100 was easily loaded with 80% by wt active ingredient due to its porosity. […] Thus, placement into the metalized polyethylene sachet with its diffusion regulating orifice was required.
Active compounds (1 gm active in Accurel® MP100) were sealed within the metalized polyethylene sachet, and a 0.5 mm hole placed into the film, and sealed until use with a metalized tape. Release rates for propyl propanoate, methyl tiglate, and butyl hexanoate were calculated at 15.5, 11.4, and 4.8 mg/day, respectively. Longevity of this system was calculated to be 64, 87, and 208 days, respectively.
Release rates for the thermoset urethane (Flexane® 80P) and synthetic rubbers systems ranged from 0.055 to 0.2 mg/cm^2/day, depending on durometer/hardness that is a measure of polymer crosslinking. Best results were obtained at durometer/hardness levels above D30. Release rates for the Saranex system without the release control provided by the metalized polyethylene and diffusion control orifice were 187, 236, and 7 mg/day for propyl propanoate, methyl tiglate, and butyl hexanoate, respectively.

[3] = 1 gm active in Accurel MP100 in metalized polyethylene sachet with 0.5 mm hole
[4] = 1 gm active in Accurel MP100 in metalized polyethylene sachet with 0.5 mm hole, FIG. 3
[5] = Saranex system without metalized polyethylene and diffusion control orifice

CCCOC(=O)CC [Propyl Propanoate]
attraction to treatment harborage versus polymer blank control (in words) ([1]; formulated in urethane): significant attraction and subsequent aggregation | Longevity of the release system [2, 3]: 64 days | Release rate [2, 4]: 15.5 mg/day | Release rate [2, 5]: 187 mg/day

C/C=C(\C)C(=O)OC [methyl tiglate, methyl ester of tiglic acid (trans-2-methyl-2-butenoic acid (methyl tiglate))]
attraction to treatment harborage versus polymer blank control (in words) ([1]; formulated with Santoprene): significant attraction and aggregation | Longevity of the release system [2, 3]: 87 days | Release rate [2, 4]: 11.4 mg/day | Release rate [2, 5]: 236 mg/day
